Source: patent US5877212A (priority 1997, dated 1999)
Like-named read-outs stand apart in the source and are kept apart here.

Columns and labels:
[1] = water; cited from earlier work
[2] = format: physicochemical
[3] = in vivo, pH 4.8
[4] = in vivo
[5] = set-up: species or system human; settings: in vivo

Compound | pK1 (pKa) [1] | further results
O=C(O)C(O)C(O)C(O)C(O)C(=O)O (centres unmarked) [Glucaric acid, 2,3,4,5-tetrahydroxyhexane-1,6-dioic acid] | 5.00 | –
O=C(O)C(CO)c1ccccc1 (centres unmarked) [Tropic acid, 2-phenyl-3-hydroxypropanoic acid] | 3.53 | –
O=C(O)C(O)c1ccccc1 (centres unmarked) [Mandelic acid, 2-phenyl 2-hydroxyethanoic acid] | 3.41 | –
CC(O)C(=O)O (centres unmarked) [lactic acid, 2-hydroxypropanoic acid] | – | anion content (lactate) ([2]; pH 4.5): 8%; free acid content ([2]; pH 4.5): 2%; skin irritation [3]: can still irritate sensitive skin or atopic skin
CC(O)(C(=O)O)c1ccccc1 (centres unmarked) [Atrolactic acid, 2-phenyl 2-methyl 2-hydroxyethanoic acid] | 3.53 | –
C[C@H](O)C(=O)O [L-Lactic acid, 2-hydroxypropanoic acid] | – | anion content (lactate) ([2]; pH 3.86): 5%; free acid content ([2]; pH 3.86): 5%
O=C(O)CC(O)C(=O)O (centres unmarked) [Malic acid, 2-hydroxybutane-1,4-dioic acid] | 3.46 | pK2 [1]: 5.10
O=C(O)C(O)C(=O)O [Tartronic acid, 2-hydroxypropane-1,3-dioic acid] | 2.37 | pK2 [1]: 4.74
O=C(O)C(O)CO (racemic) [DL-Glyceric acid, 2,3-dihydroxypropanoic acid] | 3.64 | –
O=C(O)CO [Glycolic acid, 2-hydroxyethanoic acid] | – | anion content (glycolate) ([2]; pH 3.2): 2%; free acid content ([2]; pH 3.2): 8%; anion content (glycolate) ([2]; pH 3.83): 5%; free acid content ([2]; pH 3.83): 5%
CC(C)(O)C(=O)O [Methyllactic acid, 2-methyl 2-hydroxypropanoic acid] | 3.72 | –
O=C(O)C(O)CCl (centres unmarked) [3-Chlorolactic acid] | 3.12 | –
CCC(O)C(=O)O (centres unmarked) [2-Hydroxybutanoic acid] | 3.65 | –
Oc1ccc(O)cc1 [hydroquinone] | – | improvement of pigmented and non-pigmented spots and patches [4]: improved very slightly
O=C(O)c1ccccc1O [salicylic acid] | – | improvement of acne lesions [5]: improved slightly
C[C@H](O)CC(=O)O [L-3-Hydroxybutanoic acid] | 4.41 | –
O=C(O)C(O)C(O)C(O)C(O)CO [D-Gluconic acid, 2,3,4,5,6-pentahydroxyhexanoic acid] | 3.86 | –
CC(=O)C(=O)O [Pyruvic acid, 2-ketopropanoic acid] | 2.49 | –
